Test results published in paper PMC7736581, “Activation of the IRE1 RNase through remodeling of the kinase front pocket by ATP-competitive ligands” (Nature Communications, 2020).

What was measured:
Test in all cases: biochemical
Design in all cases: Invitrogen kinase panel: Z'Lyte activity (ATP at Km) or LanthaScreen competitive ATP-site binding, percent inhibition
NEK9 = NEK9 (Homo sapiens, UniProt Q8TD19)
CK1_gamma2 = target: T1, CK1_gamma2 (Homo sapiens, UniProt P78368)
T1 construct: gene CSNK1G2

ACVR1B = ACVR1B (Homo sapiens, UniProt P36896)
MAPKAPK2 = MAPKAPK2 (Homo sapiens, UniProt P49137)
YSK1 = target: T2, YSK1 (Homo sapiens, UniProt O00506)
T2 construct: gene STK25

CaMKI = target: T3, CaMKI (Homo sapiens, UniProt Q14012)
T3 construct: gene CAMK1

BMPR1A = BMPR1A (Homo sapiens, UniProt P36894)
SRPK1 = SRPK1 (Homo sapiens, UniProt Q96SB4)
ZAK = target: T4, ZAK (Homo sapiens, UniProt Q9NYL2)
T4 construct: gene MAP3K20

Ros = target: T5, Ros (Homo sapiens, UniProt P08922)
T5 construct: gene ROS1

SGK2 = SGK2 (Homo sapiens, UniProt Q9HBY8)
MuSK = MuSK (Homo sapiens, UniProt O15146)
CAMKK2 = CAMKK2 (Homo sapiens, UniProt Q96RR4)
ErbB4 = ErbB4 (Homo sapiens, UniProt Q15303)
CamKII_alpha = target: T6, CamKII_alpha (Homo sapiens, UniProt Q9UQM7)
T6 construct: gene CAMK2A

MRCK_alpha = target: T7, MRCK_alpha (Homo sapiens, UniProt Q5VT25)
T7 construct: gene CDC42BPA

IRE2 = target: T8, IRE2 (Homo sapiens, UniProt Q76MJ5)
T8 construct: gene ERN2

PLK2 = PLK2 (Homo sapiens, UniProt Q9NYY3)
PLK1 = PLK1 (Homo sapiens, UniProt P53350)
JNK1_alpha1 = target: T9, JNK1_alpha1 (Homo sapiens, UniProt P45983)
T9 construct: gene MAPK8; isoform alpha1

DYRK1A = DYRK1A (Homo sapiens, UniProt Q13627)
NEK4 = NEK4 (Homo sapiens, UniProt P51957)
Ret = Ret (Homo sapiens, UniProt P07949)
MAPKAPK3 = MAPKAPK3 (Homo sapiens, UniProt Q16644)
PKC_epsilon = target: T10, PKC_epsilon (Homo sapiens, UniProt Q02156)
T10 construct: gene PRKCE
T10 sequence (Q02156 whole entry): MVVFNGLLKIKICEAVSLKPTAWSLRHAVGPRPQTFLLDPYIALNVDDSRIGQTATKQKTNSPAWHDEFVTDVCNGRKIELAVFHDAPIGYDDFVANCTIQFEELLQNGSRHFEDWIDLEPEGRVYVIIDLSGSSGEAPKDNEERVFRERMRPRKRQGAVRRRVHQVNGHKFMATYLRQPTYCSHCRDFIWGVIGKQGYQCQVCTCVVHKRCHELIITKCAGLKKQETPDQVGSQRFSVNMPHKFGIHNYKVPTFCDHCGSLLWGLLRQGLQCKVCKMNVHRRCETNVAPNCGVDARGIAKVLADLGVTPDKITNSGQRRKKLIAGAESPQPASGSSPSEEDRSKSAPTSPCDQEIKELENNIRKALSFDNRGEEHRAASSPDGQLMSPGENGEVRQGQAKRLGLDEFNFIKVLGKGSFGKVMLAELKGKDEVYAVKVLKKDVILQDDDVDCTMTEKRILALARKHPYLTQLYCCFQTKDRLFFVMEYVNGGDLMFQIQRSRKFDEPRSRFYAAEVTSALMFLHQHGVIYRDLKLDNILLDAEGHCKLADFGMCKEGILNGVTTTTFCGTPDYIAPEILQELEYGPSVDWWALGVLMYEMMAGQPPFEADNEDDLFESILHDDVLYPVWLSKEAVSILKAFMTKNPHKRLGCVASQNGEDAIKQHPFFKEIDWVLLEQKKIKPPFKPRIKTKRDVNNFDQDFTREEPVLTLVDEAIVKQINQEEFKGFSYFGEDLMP

T4 sequence (Q9NYL2 whole entry): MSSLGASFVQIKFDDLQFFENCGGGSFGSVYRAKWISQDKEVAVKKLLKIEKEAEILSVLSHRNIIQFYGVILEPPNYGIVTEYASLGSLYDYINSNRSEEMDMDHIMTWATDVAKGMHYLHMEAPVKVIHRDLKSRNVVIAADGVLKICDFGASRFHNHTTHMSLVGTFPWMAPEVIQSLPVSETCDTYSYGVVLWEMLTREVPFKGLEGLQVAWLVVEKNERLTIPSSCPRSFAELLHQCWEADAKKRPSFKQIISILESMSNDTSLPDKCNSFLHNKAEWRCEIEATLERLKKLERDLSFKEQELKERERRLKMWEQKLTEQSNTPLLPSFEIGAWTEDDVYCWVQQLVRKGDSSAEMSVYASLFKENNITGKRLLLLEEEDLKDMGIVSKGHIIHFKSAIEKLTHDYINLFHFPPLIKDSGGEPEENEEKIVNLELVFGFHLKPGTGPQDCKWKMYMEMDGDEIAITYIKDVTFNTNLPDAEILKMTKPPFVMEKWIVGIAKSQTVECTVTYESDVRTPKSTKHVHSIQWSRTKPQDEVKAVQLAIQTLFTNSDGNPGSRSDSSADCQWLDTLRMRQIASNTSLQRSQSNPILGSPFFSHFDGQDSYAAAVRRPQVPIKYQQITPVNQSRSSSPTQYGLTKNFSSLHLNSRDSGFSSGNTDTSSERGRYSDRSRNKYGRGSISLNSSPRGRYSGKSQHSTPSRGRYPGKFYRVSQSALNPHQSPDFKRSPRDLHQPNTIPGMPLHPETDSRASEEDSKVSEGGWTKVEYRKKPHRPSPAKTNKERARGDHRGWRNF
T9 sequence (P45983 whole entry, canonical isoform): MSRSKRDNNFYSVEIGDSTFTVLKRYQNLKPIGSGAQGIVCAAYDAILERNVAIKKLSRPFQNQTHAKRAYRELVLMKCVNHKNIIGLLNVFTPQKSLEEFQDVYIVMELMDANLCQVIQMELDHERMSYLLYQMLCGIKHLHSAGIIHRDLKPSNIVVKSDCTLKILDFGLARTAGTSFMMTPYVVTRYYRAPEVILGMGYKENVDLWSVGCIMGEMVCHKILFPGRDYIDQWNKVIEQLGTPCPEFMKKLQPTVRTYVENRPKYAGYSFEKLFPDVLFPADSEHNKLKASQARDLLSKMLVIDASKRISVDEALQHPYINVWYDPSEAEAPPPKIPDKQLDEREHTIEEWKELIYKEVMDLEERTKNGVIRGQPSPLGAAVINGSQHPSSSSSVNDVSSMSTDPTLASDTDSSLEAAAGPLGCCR
Chain of PLK2 (Q9NYY3 whole entry): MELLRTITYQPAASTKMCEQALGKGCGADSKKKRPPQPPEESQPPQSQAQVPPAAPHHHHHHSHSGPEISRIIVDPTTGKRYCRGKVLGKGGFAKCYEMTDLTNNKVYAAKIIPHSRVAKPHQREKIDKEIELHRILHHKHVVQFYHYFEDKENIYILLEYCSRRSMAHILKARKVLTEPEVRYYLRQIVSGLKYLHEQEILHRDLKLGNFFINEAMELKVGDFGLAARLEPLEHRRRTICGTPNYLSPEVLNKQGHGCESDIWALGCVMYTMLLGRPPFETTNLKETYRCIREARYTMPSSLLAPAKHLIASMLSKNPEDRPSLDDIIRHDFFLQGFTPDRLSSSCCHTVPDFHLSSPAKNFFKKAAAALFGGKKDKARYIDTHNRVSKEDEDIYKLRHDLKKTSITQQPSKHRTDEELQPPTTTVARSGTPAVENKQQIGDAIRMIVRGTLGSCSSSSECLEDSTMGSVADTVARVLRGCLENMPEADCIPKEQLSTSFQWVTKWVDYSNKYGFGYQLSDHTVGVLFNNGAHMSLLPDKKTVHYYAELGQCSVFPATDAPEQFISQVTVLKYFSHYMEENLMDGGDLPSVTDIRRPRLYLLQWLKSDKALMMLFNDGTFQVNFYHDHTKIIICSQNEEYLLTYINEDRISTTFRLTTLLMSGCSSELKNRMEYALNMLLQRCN
T1 sequence (P78368 whole entry): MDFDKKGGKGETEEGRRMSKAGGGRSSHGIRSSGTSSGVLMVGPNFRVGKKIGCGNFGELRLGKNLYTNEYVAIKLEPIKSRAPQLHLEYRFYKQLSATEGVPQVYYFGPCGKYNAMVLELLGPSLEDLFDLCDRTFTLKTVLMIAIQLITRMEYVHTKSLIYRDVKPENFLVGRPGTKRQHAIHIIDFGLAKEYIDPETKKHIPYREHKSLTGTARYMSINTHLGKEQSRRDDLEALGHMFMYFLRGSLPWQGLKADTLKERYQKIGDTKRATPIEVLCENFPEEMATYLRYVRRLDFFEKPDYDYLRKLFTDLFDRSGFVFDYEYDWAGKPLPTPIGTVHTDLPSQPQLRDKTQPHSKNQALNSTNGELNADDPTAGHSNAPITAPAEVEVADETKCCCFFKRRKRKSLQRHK
Chain of MAPKAPK3 (Q16644 whole entry): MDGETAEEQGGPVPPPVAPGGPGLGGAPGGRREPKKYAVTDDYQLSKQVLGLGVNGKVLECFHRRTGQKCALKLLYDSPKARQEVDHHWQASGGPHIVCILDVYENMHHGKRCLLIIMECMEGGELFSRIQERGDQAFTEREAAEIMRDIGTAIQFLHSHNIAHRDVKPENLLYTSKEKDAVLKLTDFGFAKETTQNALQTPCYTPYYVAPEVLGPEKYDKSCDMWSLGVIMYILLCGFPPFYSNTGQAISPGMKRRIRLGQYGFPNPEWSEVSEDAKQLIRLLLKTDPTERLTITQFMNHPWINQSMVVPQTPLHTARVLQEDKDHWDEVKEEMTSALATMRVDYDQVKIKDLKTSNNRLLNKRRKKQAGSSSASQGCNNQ
Chain of ACVR1B (P36896 whole entry): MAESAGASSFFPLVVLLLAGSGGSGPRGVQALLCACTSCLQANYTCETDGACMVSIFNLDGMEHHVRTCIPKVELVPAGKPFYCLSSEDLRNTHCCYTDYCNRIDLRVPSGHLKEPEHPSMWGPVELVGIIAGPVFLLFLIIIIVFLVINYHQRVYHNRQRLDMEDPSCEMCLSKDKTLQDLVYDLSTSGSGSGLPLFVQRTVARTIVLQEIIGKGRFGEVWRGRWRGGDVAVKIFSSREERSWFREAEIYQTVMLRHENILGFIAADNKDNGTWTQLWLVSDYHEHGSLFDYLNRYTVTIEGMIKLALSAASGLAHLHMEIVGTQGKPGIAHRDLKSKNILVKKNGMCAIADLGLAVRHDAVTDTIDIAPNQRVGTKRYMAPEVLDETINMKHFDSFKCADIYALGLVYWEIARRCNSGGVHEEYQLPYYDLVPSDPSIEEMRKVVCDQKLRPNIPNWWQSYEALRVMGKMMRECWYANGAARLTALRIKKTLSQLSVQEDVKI
Chain of MAPKAPK2 (P49137 whole entry): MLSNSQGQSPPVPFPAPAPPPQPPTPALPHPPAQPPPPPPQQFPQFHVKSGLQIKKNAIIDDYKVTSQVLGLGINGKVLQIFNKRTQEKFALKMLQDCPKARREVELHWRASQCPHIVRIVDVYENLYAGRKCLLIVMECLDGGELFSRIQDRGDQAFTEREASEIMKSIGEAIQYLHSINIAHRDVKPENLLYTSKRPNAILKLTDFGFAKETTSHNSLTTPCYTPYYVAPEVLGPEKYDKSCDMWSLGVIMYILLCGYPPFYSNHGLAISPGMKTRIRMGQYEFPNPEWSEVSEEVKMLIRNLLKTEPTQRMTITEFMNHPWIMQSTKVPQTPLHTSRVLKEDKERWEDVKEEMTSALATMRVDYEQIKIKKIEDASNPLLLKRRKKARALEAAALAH
Chain of CAMKK2 (Q96RR4 whole entry): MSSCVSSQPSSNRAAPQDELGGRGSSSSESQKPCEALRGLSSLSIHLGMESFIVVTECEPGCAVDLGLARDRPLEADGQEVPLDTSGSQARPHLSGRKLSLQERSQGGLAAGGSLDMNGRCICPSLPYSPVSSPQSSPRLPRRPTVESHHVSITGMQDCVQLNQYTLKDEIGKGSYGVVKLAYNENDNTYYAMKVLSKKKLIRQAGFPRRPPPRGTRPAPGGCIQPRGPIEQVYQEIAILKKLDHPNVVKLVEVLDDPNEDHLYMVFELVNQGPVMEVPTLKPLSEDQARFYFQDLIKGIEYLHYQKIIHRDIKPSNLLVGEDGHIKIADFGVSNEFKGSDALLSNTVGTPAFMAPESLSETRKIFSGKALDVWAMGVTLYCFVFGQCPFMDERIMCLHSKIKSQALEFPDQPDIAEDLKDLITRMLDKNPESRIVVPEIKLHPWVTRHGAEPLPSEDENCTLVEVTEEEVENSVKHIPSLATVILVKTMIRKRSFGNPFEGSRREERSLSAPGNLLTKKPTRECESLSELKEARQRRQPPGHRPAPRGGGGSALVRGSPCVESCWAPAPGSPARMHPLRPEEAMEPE

SMILES | inhibition at 1 µM (NEK9) | inhibition at 1 µM (CK1_gamma2) | inhibition at 1 µM (ACVR1B) | inhibition at 1 µM (MAPKAPK2) | inhibition at 1 µM (YSK1) | inhibition at 1 µM (CaMKI) | inhibition at 1 µM (BMPR1A) | inhibition at 1 µM (SRPK1) | inhibition at 1 µM (ZAK) | inhibition at 1 µM (Ros) | inhibition at 1 µM (SGK2) | inhibition at 1 µM (MuSK) | inhibition at 1 µM (CAMKK2) | inhibition at 1 µM (ErbB4) | inhibition at 1 µM (CamKII_alpha) | inhibition at 1 µM (MRCK_alpha) | inhibition at 1 µM (IRE2) | inhibition at 1 µM (PLK2) | inhibition at 1 µM (PLK1) | inhibition at 1 µM (JNK1_alpha1) | also measured
CCOC(=O)Nc1cccc2c(Oc3ncccc3-c3ccnc(N[C@H]4CCCNC4)n3)c(C)ccc12 [G-1749] | -3% | -4.5% | 3% | 7.5% | 2.5% | -10% | 0% | 6.5% | -0.5% | 7% | 3.5% | 13.5% | -0.5% | 4.5% | -17.5% | 4.5% | 9.5% | 3% | 5% | 53.5% | inhibition at 1 µM (DYRK1A): 4%; inhibition at 1 µM (NEK4): 6%; inhibition at 1 µM (Ret): 10%; inhibition at 1 µM (MAPKAPK3): 12.5%; inhibition at 1 µM (PKC_epsilon): 14.5%
CC#CC(=O)Nc1cccc2c(Oc3ncccc3-c3ccnc(N[C@H]4CCCNC4)n3)c(C)ccc12 [G-7658] | -0.5% | -4.5% | -0.5% | 1% | -3% | -2.5% | 2% | 5% | 0.5% | 8% | 1.5% | 9.5% | -0.5% | 11.5% | -16% | 5% | 5.5% | 3% | 6% | 72.5% | inhibition at 1 µM (DYRK1A): 2.5%; inhibition at 1 µM (NEK4): 5.5%; inhibition at 1 µM (Ret): 8%; inhibition at 1 µM (MAPKAPK3): 8%; inhibition at 1 µM (PKC_epsilon): 9.5%
